The values below come from patent US20110105389A1 (priority 2009, published 2011).

The IC50 is the concentration that gives 50% inhibition. High values mean weaker potency, low ones greater potency.

T2 sequence (Q92847 whole entry): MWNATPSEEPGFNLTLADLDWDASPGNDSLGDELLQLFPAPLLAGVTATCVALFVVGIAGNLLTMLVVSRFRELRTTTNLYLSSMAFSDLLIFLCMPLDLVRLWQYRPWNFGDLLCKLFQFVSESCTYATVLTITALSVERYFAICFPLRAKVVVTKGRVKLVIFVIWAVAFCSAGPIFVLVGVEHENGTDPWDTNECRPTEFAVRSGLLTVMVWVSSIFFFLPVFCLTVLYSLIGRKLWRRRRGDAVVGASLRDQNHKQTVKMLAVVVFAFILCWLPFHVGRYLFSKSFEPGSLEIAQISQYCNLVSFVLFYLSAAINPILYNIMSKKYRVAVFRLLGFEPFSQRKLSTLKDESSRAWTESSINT

For the first experiment, the target named is T1, human ghrelin receptor (GRLN, growth hormone secretagogue receptor, hGHS-R1a) (Homo sapiens, UniProt Q92847).
T1 construct: purchased PerkinElmer BioSignal #RBHGHSM, lot#1887; host or cells: HEK-293 cells, stably transfected (membranes)
T1 sequence (Q92847 whole entry): as above
Description: Competitive radioligand binding assay (ghrelin receptor), Method B1. Particulars: Ghrelin receptor binding activity, Method B1. As to the method:
Multiscreen Harvest plates-GF/C (Millipore, #MAHFC1H60) • 4. […] Bottom seal (Millipore, #MATAH0P00) • 7. […] Binding Buffer: 25 mM Hepes (pH 7.4), 1 mM CaCl2, 5 mM MgCl2. 2.5 mM EDTA, 0.4% BSA
Competition experiments were performed in a 300 μl filtration assay format. • 1. 220 μL of membranes diluted in binding buffer • 2. 40 μL of compound diluted in binding buffer • 3.
Compounds were provided frozen on dry ice at a stock concentration of 10 mM diluted in 100% DMSO and stored at −80° C. until the day of testing. On the test day, compounds were allowed to thaw at rt overnight and then diluted in assay buffer according to the desired test concentrations. Under these conditions, the maximal final DMSO concentration in the assay was 0.1%.
Plates were sealed with TopSeal-A, vortexed gently and incubated at rt for 30 min. The reaction was arrested by filtering samples through Multiscreen Harvest plates (pre-soaked in 0.5% polyethyleneimine) using a Tomtec Harvester, washed 9 times with 500 μL of cold 50 mM Tris-HCl (pH 7.4, 4° C.), and then plates were air-dried in a fumehood for 30 min. A bottom seal was applied to the plates prior to the addition of 25 μL of MicroScint-0 to each well. Plates were than sealed with TopSeal-A and counted for 30 sec per well on a TopCount Microplate Scintillation and Luminescence Counter (PerkinElmer) using a count delay of 60 sec. Results were expressed as counts per minute (cpm).
Data were analyzed by GraphPad Prism (GraphPad Software, San Diego, Calif.) using a variable slope non-linear regression analysis. […] Dmax values were calculated using the following formula: […]
Take `CCC(C)C1NCCOc2ccccc2C=CCNC(=O)C(Cc2ccc(Cl)cc2)NC(=O)C(C(C)OC(C)=O)N(C)C1=O` (stereo not shown) [Compound 1842]: the IC50 lay within 100 to 500 nM. `CCC1CCc2ccc(C(F)(F)F)cc2OCCNC(C(C)C)C(=O)N(C)C(C(C)O)C(=O)NC(Cc2ccccc2)C(=O)N1` (stereo not shown) [Compound 1846] yielded an IC50 of 100 to 500 nM. On to `CCC1CCc2ccc(F)cc2OCCNC(C(C)C)C(=O)N(C)C(C(C)OC(C)=O)C(=O)NC(Cc2c[nH]c3ccccc23)C(=O)N1` (stereo not shown) [Compound 1851], for which the IC50 was over 500 nM. Turning to `CCC1CCc2ccc(F)cc2OC(C)CNC(CC)C(=O)N(C)C(C(C)O)C(=O)NC(Cc2ccccc2)C(=O)N1` (stereo not shown) [Compound 1852], the 50% inhibitory concentration (IC50) was over 500 nM. On the same count and under the same terms, then `CC[C@@H]1CCc2c(cccc2C(N)=O)OCCN[C@@H](C(C)C)C(=O)N(C)[C@@H](C(C)O)C(=O)N[C@H](Cc2ccccc2)C(=O)N1` (stereo partly shown) [Compound 1864], with over 500 nM; and `CC[C@@H]1CCc2c(NS(C)(=O)=O)cccc2OCCN[C@@H](C(C)C)C(=O)N(C)[C@@H](C(C)O)C(=O)N[C@H](Cc2ccccc2)C(=O)N1` (stereo partly shown) [Compound 1866], with over 500 nM; and `CC(O)[C@H]1C(=O)N[C@H](Cc2ccccc2)C(=O)N[C@H](C)CCc2ccc(F)cc2O[C@H](C)CN[C@@H](C2(C)CC2)C(=O)N1C` (stereo partly shown) [Compound 1869], with 10 to 100 nM. On the same count and under the same terms, then `CC(O)[C@H]1C(=O)N[C@H](Cc2ccc(F)cc2)C(=O)N[C@H](C)CCc2ccc(F)cc2O[C@H](C)CN[C@@H](C2(C)CC2)C(=O)N1C` (stereo partly shown) [Compound 1870], with 10 to 100 nM; and `CC(O)[C@H]1C(=O)N[C@H](Cc2ccc(Cl)cc2)C(=O)N[C@H](C)CCc2ccc(F)cc2O[C@H](C)CN[C@@H](C2(C)CC2)C(=O)N1C` (stereo partly shown) [Compound 1871], with 10 to 100 nM.

`CC(O)[C@H]1C(=O)N[C@H](Cc2ccc3ccccc3c2)C(=O)NCCCc2cccnc2OCCN[C@@H](C2(C)CC2)C(=O)N1C` (stereo partly shown) [Compound 1880] showed an IC50 of 1 to 10 nM.

Molecule `CC(C)[C@@H]1NCCOc2cc(F)ccc2CCC(CC(F)(F)F)NC(=O)[C@@H](Cc2c[nH]c3ccccc23)NC(=O)[C@H](C(C)O)N(C)C1=O` (stereo partly shown) [Compound 1885] gave an IC50 of 100 to 500 nM. Consider `CC[C@@H]1CCc2c(cccc2C(F)(F)F)OCCN[C@@H](C(C)C)C(=O)N(C)[C@@H](C(C)O)C(=O)N[C@H](Cc2ccccc2)C(=O)N1` (stereo partly shown) [Compound 1888], for which the half-inhibitory concentration (IC50) is over 500 nM. Molecule `CC[C@@H]1CCc2c(C#N)cccc2OCCN[C@@H](C(C)C)C(=O)N(C)[C@@H](C(C)O)C(=O)N[C@H](Cc2ccccc2)C(=O)N1` (stereo partly shown) [Compound 1889] returned an IC50 of 100 to 500 nM. In the case of `CC[C@@H]1CCc2c(cccc2C(F)(F)F)OCCN[C@@H](C(C)C)C(=O)N(C)[C@@H](C(C)O)C(=O)N[C@H](Cc2c[nH]c3ccccc23)C(=O)N1` (stereo partly shown) [Compound 1891], the IC50 lay within 100 to 500 nM. Same read-out and setting: for `CC[C@@H]1CCc2c(cccc2C(F)(F)F)OCCN[C@@H](C(C)C)C(=O)N(C)[C@@H](C(C)O)C(=O)N[C@H](Cc2ccc(F)cc2)C(=O)N1` (stereo partly shown) [Compound 1892] the value was over 500 nM; for `CC[C@@H]1CCc2c(C#N)cccc2OCCN[C@@H](C2(C)CC2)C(=O)N(C)[C@@H](C(C)O)C(=O)N[C@H](Cc2ccccc2)C(=O)N1` (stereo partly shown) [Compound 1895], 100 to 500 nM.

Regarding `CC[C@@H]1CCc2c(C#N)cccc2OCCN[C@@H](C(C)C)C(=O)N(C)[C@@H](C(C)O)C(=O)N[C@H](Cc2c[nH]c3ccccc23)C(=O)N1` (stereo partly shown) [Compound 1896], the IC50 lay within 100 to 500 nM. For `CC[C@@H]1CCc2c(C#N)cccc2OCCN[C@@H](C(C)C)C(=O)N(C)[C@@H](C(C)O)C(=O)N[C@H](Cc2ccc(F)cc2)C(=O)N1` (stereo partly shown) [Compound 1897], the IC50 was 100 to 500 nM. `CC(C)[C@@H]1NCCOc2ncccc2CC[C@@H](C)NC(=O)[C@@H](Cc2ccccc2)NC(=O)[C@H](C(C)O)N(C)C1=O` (stereo partly shown) [Compound 1906] gave an IC50 of 10 to 100 nM. The same measure, in the same setting: then `CC(O)[C@H]1C(=O)N[C@H](Cc2ccccc2)C(=O)N[C@H](C)CCc2cccnc2OCCN[C@@H](C2(C)CC2)C(=O)N1C` (stereo partly shown) [Compound 1907], with 10 to 100 nM; and `CC[C@@H]1CCc2c(cccc2C(F)(F)F)OCCN[C@@H](C2(C)CC2)C(=O)N(C)[C@@H](C(C)O)C(=O)N[C@H](Cc2ccccc2)C(=O)N1` (stereo partly shown) [Compound 1912], with over 500 nM; and `CC[C@@H]1CCc2ccc(F)cc2OCCN[C@@H](C2(C)CC2)C(=O)N(C)[C@@H](C(C)O)C(=O)N[C@H](Cc2ccc(F)cc2)C(=O)N1` (stereo partly shown) [Compound 1913], with 10 to 100 nM. On to `CC(O)C1C(=O)NC(Cc2ccccc2)C(=O)NC(CC(F)(F)F)CCc2ccc(F)cc2OCCNC(C2(C)CC2)C(=O)N1C` (stereo not shown) [Compound 1921], for which the IC50 was in the range of 100 to 500 nM.

Another experiment addresses T2, GHS-R1a receptor (HEK293 cells expressing GHS-R1a receptor) (Homo sapiens, UniProt Q92847).
T2 construct: host or cells: HEK293
Description: Fluorescence functional assay (ghrelin receptor), Method B2, agonist and antagonist mode. The note with it: functional activity as an antagonist at the ghrelin receptor, Methods B2 and B3. Type of experiment: cell-based. On the procedure:
• 1. ImageTrak Epi-Fluorescence system (Perkin-Elmer) • 2. MultiDrop TiterTek • 3. CO2 incubators: 5% CO2, humidified, 37° C.
• 1. Hanks' BSS without phenol red (Life Technologies) • 2. Hepes buffer • 3. Probenecid (Sigma) • 4. […] Falcon cell culture 96-well black/clear bottom plates • 6. 0.05% trypsin-EDTA • 7. Cells: HEK293 cells expressing GHS-R1a receptor (Perkin-Elmer BioSignal) were grown in DMEM (Dulbecco's Modified Eagles Medium) with 10% FBS, 1% sodium pyruvate, 1% NEAA and 400 μg/mL geneticin • 8. […] [D-Lys^3]-GHRP-6 (reference antagonist, Phoenix #031-22) • 10. Assay buffer: HBSS-20 mM Hepes containing 2.5 mM probenecid and 0.1% BSA (bovine serum albumin); pH 7.4
Stock solutions of compounds (10 mM in 100% DMSO) were provided frozen on dry ice and stored at −80° C. prior to use. […] Assay plates were then prepared by appropriate dilution in assay buffer.
Typical Final Test Concentrations (N=10) for Test Compounds (agonist):
Typical Final Test Concentrations (N=10) for Test Compounds (antagonist):
Cells were maintained in culture as indicated above. The cells were harvested at a confluency of 70-90% the day before the experiment. Growth medium was removed and the cells rinsed briefly with PBS without Ca^+2 and Mg^+2. 0.05% Trypsin was added and the plates incubated at 37° C. for 5 min to detach the cells. DMEM medium supplemented with 10% FBS was added to inactivate the trypsin and determine the cell concentration. The inoculum was adjusted to a final concentration of 200 cells/μL and dispensed at 200 μL per well into a 96-well block plate. The plates were, incubated at 37° C. overnight.
The plates were removed from the incubator and the media removed by inversion of the plates. Calcium-3 dye, 50 μL, was loaded and then incubated for 1 h at 37° C. The plate was again inverted and then 25 μL of assay buffer added. The plates were then transferred to the ImageTrak system for analysis. For agonist testing, after reading for ten (10) sec, 25 μL of 2× test compound or control was injected into the assay plate. Fluorescence was monitored for an additional 50 sec. A reading was taken every two (2) seconds for a total of 30 readings per assay point.
For antagonist testing, after reading for ten (10) sec, 12.5 μL of 3× test compound or control was injected into the assay plate and allowed to react for three (3) min.
Concentration response curves were analyzed using GraphPad Prism (GraphPad Software, San Diego, Calif.) by non-linear regression analysis (sigmoidal dose-response). EC50 values are calculated using GraphPad.
Emax values were calculated using the following formula: […]
Concentration response curves were analyzed using GraphPad Prism (GraphPad Software, San Diego, Calif.) by non-linear regression analysis (sigmoidal dose-response). IC50 values are calculated using GraphPad.
Imax values were calculated using the following formula: […]
Turning to `CCC(C)[C@@H]1NCCOc2ccccc2/C=C/CNC(=O)[C@@H](Cc2cccc(O)c2)NC(=O)[C@H](C(C)O)N(C)C1=O` (stereo partly shown) [Compound 1351], the “Antagonist Activity” value is reported as “C (C = 10-100 nM)”.

With `CC(C)[C@@H]1NCCOc2ccccc2CC[C@@H](C)NC(=O)[C@@H](Cc2cccc(O)c2)NC(=O)[C@H](C(C)O)N(C)C1=O` (stereo partly shown) [Compound 1352], the “Antagonist Activity” value is “C (C = 10-100 nM)”.

As for `CC(C)[C@@H]1NCCOc2ccccc2CC[C@@H](C)NC(=O)[C@@H](Cc2ccccc2)NC(=O)[C@H](C(C)O)N(C)C1=O` (stereo partly shown) [Compound 1361], the “Antagonist Activity” value was “B (B = 1-10 nM)”. With `CC(C)[C@@H]1NCCOc2cc(F)ccc2CCCNC(=O)[C@@H](Cc2ccccc2)NC(=O)[C@H](C(C)O)N(C)C1=O` (stereo partly shown) [Compound 1363], the “Antagonist Activity” value is listed as “C (C = 10-100 nM)”. Still for that read-out and setting: then `CC(C)[C@@H]1NCCOc2cc(F)ccc2CCCNC(=O)[C@@H](Cc2cccc(F)c2)NC(=O)[C@H](C(C)O)N(C)C1=O` (stereo partly shown) [Compound 1366], with “B (B = 1-10 nM)”; and `CC(O)[C@H]1C(=O)N[C@H](Cc2ccccc2)C(=O)N[C@H](C)CCc2ccccc2OCCN[C@@H](C(C)(C)C)C(=O)N1C` (stereo partly shown) [Compound 1370], with “C (C = 10-100 nM)”. Same read-out and setting: then `CC(C)[C@@H]1NCCOc2ccc(F)cc2CC[C@@H](C)NC(=O)[C@@H](Cc2ccccc2)NC(=O)[C@H](C(C)O)N(C)C1=O` (stereo partly shown) [Compound 1380], with “B (B = 1-10 nM)”. Turning to `CC(C)[C@@H]1NCCOc2cccc(F)c2CC[C@@H](C)NC(=O)[C@@H](Cc2ccccc2)NC(=O)[C@H](C(C)O)N(C)C1=O` (stereo partly shown) [Compound 1381], the “Antagonist Activity” value is listed as “B (B = 1-10 nM)”. In the case of `CC(C)[C@@H]1NCCOc2ccccc2CC[C@@H](C)NC(=O)[C@@H](Cc2ccc(O)c(Cl)c2)NC(=O)[C@H](C(C)O)N(C)C1=O` (stereo partly shown) [Compound 1383], the “Antagonist Activity” value is reported as “B (B = 1-10 nM)”. For `CC(C)[C@@H]1NCCOc2ccccc2CC[C@@H](C)NC(=O)[C@@H](Cc2cccnc2)NC(=O)[C@H](C(C)O)N(C)C1=O` (stereo partly shown) [Compound 1384], the “Antagonist Activity” value is recorded as “C (C = 10-100 nM)”. As to `CCC[C@@H]1NCCOc2ccccc2CC[C@@H](C)NC(=O)[C@@H](Cc2ccccc2)NC(=O)[C@H](C(C)O)N(C)C1=O` (stereo partly shown) [Compound 1394], the “Antagonist Activity” value is “D (D = 100-500 nM)”.
